According to article PMC6748410, “A phase 2 study of an oral mTORC1/mTORC2 kinase inhibitor (CC-223) for non-pancreatic neuroendocrine tumors with or without carcinoid symptoms” (PLoS ONE, 2019):
“And” between values parts separate entries of the source, which are not always exact repeats. Equal entries are not always repeated.

Experiments:
pAKT (mTORC2) = assay: Stimulated blood biomarker assay in monocytes (CD14+) for pAKT (mTORC2 inhibition); format: in vivo, human; conditions: for pAKT median inhibition from baseline: 30 mg; for Blood pAKT median inhibition: 45 mg
Description: (§1) Central laboratories conducted serial stimulated blood biomarker assays in monocytes (CD14+) for p4E-BP1 and pPKB (also known as pAKT) for assessment of mTORC1 and mTORC2 inhibition, respectively. Monthly changes from baseline for chromogranin A (CgA), and for other serum hormones if elevated, were assayed locally.

p4E-BP1 (mTORC1) = assay: Stimulated blood biomarker assay in monocytes (CD14+) for p4E-BP1 (mTORC1 inhibition); format: in vivo, human
Description: as §1

[1] = test system: well-differentiated NET of non-pancreatic gastrointestinal or unknown origin; assay: Tumor response by investigator (RECIST version 1.1), PFS and OS; format: in vivo, human
Description: Tumors were restaged by the principal investigator at each site using computed tomography (CT), positron emission tomography (PET)-CT, or magnetic resonance imaging scans after every 2 cycles through cycle 6, and every 3 cycles thereafter, using Response Evaluation Criteria In Solid Tumors (RECIST) version 1.1 criteria for response.
(§2) This phase 1/2 study was not powered for inferential statistics and mostly descriptive statistics were used. All patients dosed with CC-223 were included in the safety analysis. The efficacy analysis included all patients completing at least one cycle of drug who had both baseline and one post-baseline tumor efficacy assessment, unless otherwise specified. Categorical baseline variables including tumor type-specific characteristics were summarized using frequency counts and percentage. Continuous demographic and baseline characteristic variables were summarized by descriptive statistics. A Wilcoxon signed rank test was used to analyse change from baseline in serum hormone levels at selected scheduled visits.
Best overall tumor response by investigator assessment was summarized using frequency tabulation. Waterfall plots were used to show best percentage change from baseline in the sum of length (longest diameter) of target lesions.
Relationship between PFS and NET-specific assessments such as serum hormone levels and carcinoid symptoms were investigated. The Kaplan-Meier estimate of median PFS with its two-sided 95% confidence interval [CI] was provided for each baseline category of the selected biomarkers. Kaplan-Meier plots of PFS were created by category. The raw P value of the log rank test comparing survival distribution of PFS between categories was also provided.

[2] = test system: serum hormones (CgA, gastrin, glucagon, serotonin); assay: Serum hormone changes from baseline; format: in vivo, human; conditions: among 35 patients with elevated baseline levels in at least one hormone
Description: as §1, §2

[3] = 28-day GLP toxicology study, dog; format: in vivo
Description: A dose of 7.5 mg/day is proposed as the starting dose in this protocol. This dose is based on the recommendations in the March 2010 FDA Guidance for Industry entitled, “S9 Nonclinical Evaluation for Anticancer Pharmaceuticals,” where a start dose for first administration in humans should be either one-tenth the STD10 in rodents, or one-sixth of the HNSTD if the nonrodent is the most appropriate species. The conversion factors from the July 2005 FDA Guidance for Industry entitled, “Estimating the Maximum Safe Starting Dose in Initial Clinical Trials for Therapeutics in Adult Healthy Volunteers,” were used to convert the animal dose to the HED. The dose was converted to milligrams based on a 60-kg human body weight.
Species Animal Dose HED (mg/kg) HED (mg) Safety Factor Start Dose (mg) […]
Since the dog was identified as the most sensitive species in the 28-day GLP toxicology studies, the start dose for the study would be 8.2 mg/day. Based on available dosage strengths of the IP, a dose of 7.5 mg/day of CC-223 is deemed to be an acceptable starting dose for this initial trial in […]
Part B will consist of approximately 230 patients with selected tumor types to further assess the safety profile and provide preliminary efficacy information. […]

[4] = test system: mTORC1 and mTORC2 biomarkers; assay: Target biomarker inhibition at 15 mg dose level (predicted, not tested); format: in vivo, human; conditions: 15 mg dose level
[5] = Rat; trial protocol; cited from earlier work
[6] = Dog; trial protocol; cited from earlier work
[7] = across both dose level cohorts (45 mg or 30 mg), 1.5 hours after multiple dosing on day 15

CO[C@H]1CC[C@H](N2C(=O)CNc3ncc(-c4ccc(C(C)(C)O)nc4)nc32)CC1 [CC-223]
pAKT median inhibition from baseline (pAKT (mTORC2); after the first dose): 59% | pAKT median inhibition from baseline (pAKT (mTORC2); day 15 after multiple doses): 79% | Blood pAKT median inhibition (pAKT (mTORC2); 1.5 hours after a single dose (day 1)): 83% | Blood pAKT median inhibition (pAKT (mTORC2); after multiple doses (day 15)): 76% | pAKT median biomarker inhibition relative to baseline (pAKT (mTORC2); [7]): > 70% | p4E-BP1 median inhibition (p4E-BP1 (mTORC1); 30 mg, after multiple doses): 26% | p4E-BP1 median inhibition (p4E-BP1 (mTORC1); 30 mg, following a single dose): 9% | p4E-BP1 median inhibition (p4E-BP1 (mTORC1); 45 mg, 1.5 hours after a single dose): 37% | p4E-BP1 median inhibition (p4E-BP1 (mTORC1); 45 mg, after multiple doses): 47% | p4E-BP1 median biomarker inhibition relative to baseline (p4E-BP1 (mTORC1); [7]): > 26% | Progressive disease (PD) ([1]; 1 of 41 evaluable patients, investigator assessment): 2.4% | Partial response (PR) ([1]; 3 of 41 evaluable patients, investigator assessment): 7% and 7.3% | Objective response rate (CR+PR) ([1]; 41 evaluable patients, 95% CI 1.5–19.9%): 7.3% | Disease control rate (CR+PR+SD) ([1]; 41 evaluable patients, 95% CI 76.9–97.3%): 90% and 90.2% | Complete response (CR) ([1]; 41 evaluable patients, investigator assessment): no patient | Patients with tumor shrinkage of any magnitude relative to baseline ([1]; 95% CI 57.1–85.8%): 73.2% | Median PFS in patients without carcinoid symptom improvement ([1]; ad hoc exploratory analysis, 95% CI 35.6–104.4): 48.1 weeks and 48 weeks | Median PFS in patients with carcinoid symptom improvement ([1]; ad hoc exploratory analysis, 95% CI 72.6–not estimable): 108.4 weeks and 108 weeks | PFS rate ([1]; at 6 months): 85% | PFS rate ([1]; at 10 months): 64% | OS rate ([1]; at 48 weeks): 0.97 | Duration of SD (min–max) ([1]; in vivo): 50 to 1519 days | Median duration of SD ([1]; in vivo): 297 days | Patients with duration of SD longer than a year ([1]; in vivo): 17 patients | Median OS ([1]; treated population): not assessable | Median progression-free survival (PFS) ([1]; treated population, 95% CI 10.4–28.5 months): 19.5 months | Patients with ≥50% decline from baseline in CgA [2]: 7 patients | Patients with ≥50% decline from baseline in gastrin [2]: 6 patients | Patients with ≥50% decline from baseline in glucagon [2]: 3 patients | Patients with ≥50% decline from baseline in serotonin [2]: 2 patients | HED (human equivalent dose) of HNSTD ([3]; 60-kg human body weight): 49 mg | HED (human equivalent dose) of HNSTD ([3]; FDA conversion factors): 0.81 mg/kg | Target biomarker inhibition [4]: modest | STD10 (severely toxic dose in 10% of the animals tested) [5]: 10 mg/kg | HNSTD (highest non-severely toxic dose) [6]: 1.5 mg/kg
